# According to PubChem BioAssay (NCI):
#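 Exposure lasted 48 hours, with cells grown in 96-well plates and compounds tested at five concentrations. GI50: concentration for 50% inhibition of growth. Definition used: TGI = concentration required for complete inhibition of growth.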
# Experiments:
# Assay in all cases: growth of human tumour cells (NCI), 48 h
# [1] = test system: MCF7 breast
# [2] = test system: SK-MEL-28 melanoma
# [3] = test system: RXF 393 renal
# [4] = test system: M14 melanoma
# [5] = test system: COLO 205 colon
# [6] = test system: SNB-19 CNS
# [7] = test system: OVCAR-3 ovarian
# [8] = test system: DU-145 prostate
# [9] = test system: SF-539 CNS
# [10] = test system: SF-295 CNS
# [11] = test system: CAKI-1 renal
# [12] = test system: SK-MEL-2 melanoma
# [13] = test system: NCI-H226 lung
# [14] = test system: HS 578T breast
# [15] = test system: SF-268 CNS
# [16] = test system: MOLT-4 leukemia
# [17] = test system: TK-10 renal
# [18] = test system: UO-31 renal
# [19] = test system: PC-3 prostate
# [20] = test system: NCI-H522 lung
# [21] = test system: SW-620 colon
# [22] = test system: MDA-MB-435
# [23] = test system: OVCAR-4 ovarian
# [24] = test system: OVCAR-8 ovarian
# [25] = test system: HL-60(TB) leukemia
# [26] = test system: NCI/ADR-RES ovarian
# [27] = test system: OVCAR-5 ovarian
# [28] = test system: HCT-15 colon
# [29] = test system: SK-MEL-5 melanoma
# [30] = test system: NCI-H460 lung
# [31] = test system: CCRF-CEM leukemia
# [32] = test system: A549 NSCLC
# [33] = test system: BT-549 breast
# [34] = test system: SK-OV-3 ovarian
# [35] = test system: HT29 colon
# [36] = test system: K-562 leukemia
# [37] = test system: SNB-75 CNS
# [38] = test system: IGROV1 ovarian
# [39] = test system: HOP-62 NSCLC
# [40] = test system: SR leukemia
# [41] = test system: UACC-257 melanoma
# [42] = test system: A498 renal
# [43] = test system: HCT-116 colon
# [44] = test system: T-47D breast
# [45] = test system: HOP-92 NSCLC
# [46] = test system: RPMI-8226 leukemia
# [47] = test system: HCC-2998 colon
# [48] = test system: ACHN renal
# [49] = test system: MDA-MB-231 breast
# [50] = test system: 786-0 renal
# [51] = test system: MALME-3M melanoma
# [52] = test system: SN12C renal
# [53] = test system: KM12 colon
# [54] = test system: UACC-62 melanoma
# [55] = test system: U251 CNS
# [56] = test system: EKVX NSCLC
# [57] = test system: LOX IMVI melanoma
compound,measurement,setting,value
CS(=O)c1nccc(-c2c(-c3ccc(F)c(OCCc4ccc(F)cc4)c3)nc3sccn23)n1 (centres undefined),GI50,[1],2020 nM
same,TGI,[1],4.81 µM
same,GI50,[2],9.81 µM
same,TGI,[2],21.5 µM
same,GI50,[3],13.3 µM
same,TGI,[3],26.3 µM
same,GI50,[4],15.2 µM
same,TGI,[4],30.4 µM
same,GI50,[5],28.4 µM
same,TGI,[5],> 100 µM
same,GI50,[6],14.6 µM
same,TGI,[6],29.3 µM
same,GI50,[7],3.45 µM
same,TGI,[7],12.9 µM
same,GI50,[8],4.13 µM
same,TGI,[8],14.5 µM
same,GI50,[9],18 µM
same,TGI,[9],41 µM
same,GI50,[10],> 100 µM
same,TGI,[10],> 100 µM
same,GI50,[11],11.1 µM
same,TGI,[11],23 µM
same,GI50,[12],15.6 µM
same,TGI,[12],29.7 µM
same,GI50,[13],15.5 µM
same,TGI,[13],32.4 µM
same,GI50,[14],19.9 µM
same,TGI,[14],79.6 µM
same,GI50,[15],16.1 µM
same,TGI,[15],32.1 µM
same,GI50,[16],4.04 µM
same,TGI,[16],15.8 µM
same,GI50,[17],30.9 µM
same,TGI,[17],> 100 µM
same,GI50,[18],1820 nM
same,TGI,[18],4.11 µM
same,GI50,[19],11.9 µM
same,TGI,[19],27.4 µM
same,GI50,[20],13.5 µM
same,TGI,[20],29.7 µM
same,GI50,[21],3.5 µM
same,TGI,[21],14.1 µM
same,GI50,[22],16.7 µM
same,TGI,[22],32.2 µM
same,GI50,[23],14.7 µM
same,TGI,[23],28.6 µM
same,GI50,[24],14.3 µM
same,TGI,[24],28 µM
same,GI50,[25],2500 nM
same,TGI,[25],6.05 µM
same,GI50,[26],20.3 µM
same,TGI,[26],49 µM
same,GI50,[27],39.9 µM
same,TGI,[27],> 100 µM
same,GI50,[28],3.95 µM
same,TGI,[28],16.9 µM
same,GI50,[29],23.4 µM
same,TGI,[29],58.7 µM
same,GI50,[30],4.89 µM
same,TGI,[30],17.4 µM
same,GI50,[31],5.16 µM
same,TGI,[31],24 µM
same,GI50,[32],> 100 µM
same,TGI,[32],> 100 µM
same,GI50,[33],18.4 µM
same,TGI,[33],37.5 µM
same,GI50,[34],> 100 µM
same,TGI,[34],> 100 µM
same,GI50,[35],14.9 µM
same,TGI,[35],30.1 µM
same,GI50,[36],3.04 µM
same,TGI,[36],11.7 µM
same,GI50,[37],21.2 µM
same,TGI,[37],> 100 µM
same,GI50,[38],2480 nM
same,TGI,[38],6.65 µM
same,GI50,[39],16.2 µM
same,TGI,[39],32.2 µM
same,GI50,[40],4.22 µM
same,TGI,[40],28.8 µM
same,GI50,[41],14.6 µM
same,TGI,[41],29.5 µM
same,GI50,[42],> 100 µM
same,TGI,[42],> 100 µM
same,GI50,[43],3.52 µM
same,TGI,[43],12.4 µM
same,GI50,[44],2490 nM
same,TGI,[44],6.12 µM
same,GI50,[45],6.72 µM
same,TGI,[45],26.7 µM
same,GI50,[46],4.84 µM
same,TGI,[46],28.4 µM
same,GI50,[47],11.7 µM
same,TGI,[47],24.9 µM
same,GI50,[48],2070 nM
same,TGI,[48],4.37 µM
same,GI50,[49],14.6 µM
same,TGI,[49],31.9 µM
same,GI50,[50],34.8 µM
same,TGI,[50],> 100 µM
same,GI50,[51],15.3 µM
same,TGI,[51],33.3 µM
same,GI50,[52],15.2 µM
same,TGI,[52],33.7 µM
same,GI50,[53],14.5 µM
same,TGI,[53],29.2 µM
same,GI50,[54],16.1 µM
same,TGI,[54],33.2 µM
same,GI50,[55],28.8 µM
same,TGI,[55],> 100 µM
same,GI50,[56],17 µM
same,TGI,[56],42.3 µM
same,GI50,[57],10.5 µM
same,TGI,[57],23.4 µM
